pIC50: −log10 of the molar value.
Biological target: Sentrin-specific protease 6 (Homo sapiens) (UniProt Q9GZR1)
Assay: inhibition of human SENP6 catalytic domain – biochemical, luminescence, set 2, SAR follow-up (AID 588598)
Details: recombinant SENP6, Z-RLRGG-aminoluciferin cleavage, 30 min

Sentrin-specific protease 6 (Homo sapiens), sequence (Q9GZR1 628-1112 limits assumed): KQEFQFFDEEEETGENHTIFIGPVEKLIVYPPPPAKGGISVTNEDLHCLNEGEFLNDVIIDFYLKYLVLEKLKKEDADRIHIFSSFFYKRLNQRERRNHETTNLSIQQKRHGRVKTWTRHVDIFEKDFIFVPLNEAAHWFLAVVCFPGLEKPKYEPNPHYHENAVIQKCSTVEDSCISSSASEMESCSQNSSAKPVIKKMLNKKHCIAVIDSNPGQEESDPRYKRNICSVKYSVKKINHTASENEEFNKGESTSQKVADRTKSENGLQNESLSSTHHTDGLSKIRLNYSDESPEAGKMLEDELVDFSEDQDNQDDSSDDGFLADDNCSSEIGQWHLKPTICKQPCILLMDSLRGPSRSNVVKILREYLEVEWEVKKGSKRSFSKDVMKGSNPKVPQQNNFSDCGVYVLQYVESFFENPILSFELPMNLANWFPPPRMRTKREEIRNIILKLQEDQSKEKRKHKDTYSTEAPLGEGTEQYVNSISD

pIC50: 5.89
Compound: O=C(Nc1nc2ccc(Cl)cc2s1)c1cccs1
